Tested on: pKAP1/KAP1 in MDA-231 tumors
Assay: Pharmacodynamic assay, pKAP1/KAP1 in MDA-231 tumors
Format: in vivo, mice
Source text: Tumor Studies. Female NCr nu/nu mice (Crl:NU(NCr)-Foxn1 nu, Strain 490) were obtained from Charles River at 5-6 weeks of age. All animal procedures used in these studies were approved by the Institutional Animal Care and Use Committee (IACUC) at Duke University.
FADU or MDA-MB-231 cells were harvested during log phase growth for in vivo implantation. The resuspended cells were washed three times in phosphate buffered saline (PBS) before preparing the working dilution in PBS. FADU cells were diluted to 1×10^7 cells/mL and MDA-MB-231 cells were diluted to 5×10^7 cells/mL. Each mouse was injected subcutaneously in the right flank with 100 μL of the cellular suspension. Tumor growth was monitored until the tumors reached a target volume of at least 100 mm^3, at which point mice were randomly stratified into four treatment groups.
The vehicle used in this study was 0.5% (Hydroxypropyl)methyl cellulose (HPMC) and 0.2% Tween80 dissolved in deionized water. The pH of the vehicle was adjusted to 7.0-8.0 and the vehicle was stored at 4° C. On each day of in vivo treatment an appropriate mass of test compound was added to the vehicle at room temperature. The mixture was vortexed as necessary to generate a final concentration of 1.6 mg/mL.
Pharmacodynamic (PD) assays. Tumor studies were performed as follows. Mice bearing FADU or MDA-231 tumors were pre-dosed with vehicle alone or compound 569 alone at 3, 6, and 10 mg/kg. Tumors were then irradiated with 10 Gy 45 min after vehicle or compound 569 administration or left unirradiated (vehicle and compound 569 at 10 mg/kg). Tumors were harvested 1 h post radiation.
Tissue homogenates for pharmacodynamic analyses were collected and processed as follows. Tumor tissues from FADU or MDA-MB-231 tumors were flash frozen in liquid nitrogen and pulverized on dry ice using a tissue pulverizer. A portion of the tumor powder was transferred into a microtube, followed by addition of 500 μL of RIPA buffer [[…], pH 8.0, 150 mM NaCl, 0.1% SDS, 0.5% sodium deoxycholate, 1% IGEPAL® CA-630 (Sigma, 18896)]. To 10 ml of RIPA buffer, 2 tablets each of Protease inhibitor and Phosphatase inhibitor (Roche, #04693159001 & #04906837001), 200 μL of 0.1 M PMSF and 160 μL of Aprotinin, (Sigma, A6279) were added. The suspension was homogenized on ice with a pellet pestle motor (KONTES) and incubated on ice for 30 minutes. Cell lysates were centrifuged at 13,200 rpm for 15 min at 4° C. and supernatants were transferred to a new tube and analyzed for protein concentration with a BCA kit (Pierce, 23227), followed by immunoblotting.

In the case of `CC(C)NCCOc1ncc(-c2cc3c4c(cnc3cc2F)N(C)C(=O)C42CCC2)cc1NS(C)(=O)=O` [Compound 569, N-(5-(7′-Fluoro-3′-methyl-2′-oxo-2′,3′-dihydrospiro[cyclobutane-1,1′-pyrrolo[2,3-c]quinolin]-8′-yl)-2-(2-(isopropylamino)ethoxy)pyridin-3-yl)methanesulfonamide], the pKAP1/KAP1 (10 Gy, 3 mg/kg oral, harvested 1 h post radiation) is reported as 0.327, the pKAP1/KAP1 (10 Gy, 6 mg/kg oral, harvested 1 h post radiation) is reported as 0.0130 and the pKAP1/KAP1 (10 Gy, 10 mg/kg oral, harvested 1 h post radiation) is reported as 0.00901. The pKAP1/KAP1 (no radiation, 10 mg/kg oral) was −0.00319.
